Like-named read-outs stand apart in the source and are kept apart here.
Columns and labels:
CYP3A4 = target: T1, CYP3A4 (Homo sapiens, UniProt P08684); test: Cytochrome P450 inhibition in human liver microsomes; assay type: in vitro ADME
T1 construct: Compounds were incubated with human liver; from tissue; host or cells: human liver microsomes

[1] = tested on: human liver cells (HepG2); test: HepG2 cytotoxicity (CellTiter-Glo); assay type: cell-based; settings: read-out: IC50 (50% loss of viability), 72 h
Mycobacterium abscessus = test: MIC, IC50, IC90 against nontuberculous mycobacteria (OD590); assay type: cell-based; settings: M. abscessus
[2] = Caco-2 permeability assay; settings: human, Caco-2
Method: The Caco-2 cell layer permeability assay is widely used as a more predictive in vitro model of absorption through the intestinal epithelium. […] For B–A permeability, test compound was added to the basal side of the Caco-2 monolayer and the transport of the compound to the apical side monitored. The amount of compound present in each compartment was quantified by LC-MS/MS.
recovered and analyzed by LC-MS/MS.
3.2. Caco-2 Permeability Assay
feeding at 2-day intervals.
Each experiment included the
contained transport buffer at pH 7.4.
3.3. Cytochrome P450 Inhibition Assay
and was < 0.2%. Samples were run in duplicate. Compounds were incubated with human liver

CYP2C19 = target: T2, CYP2C19 (Homo sapiens, UniProt P33261); test: Cytochrome P450 inhibition in human liver microsomes; assay type: in vitro ADME
T2 construct: Compounds were incubated with human liver; from tissue; host or cells: human liver microsomes
T2 sequence (P33261 whole entry): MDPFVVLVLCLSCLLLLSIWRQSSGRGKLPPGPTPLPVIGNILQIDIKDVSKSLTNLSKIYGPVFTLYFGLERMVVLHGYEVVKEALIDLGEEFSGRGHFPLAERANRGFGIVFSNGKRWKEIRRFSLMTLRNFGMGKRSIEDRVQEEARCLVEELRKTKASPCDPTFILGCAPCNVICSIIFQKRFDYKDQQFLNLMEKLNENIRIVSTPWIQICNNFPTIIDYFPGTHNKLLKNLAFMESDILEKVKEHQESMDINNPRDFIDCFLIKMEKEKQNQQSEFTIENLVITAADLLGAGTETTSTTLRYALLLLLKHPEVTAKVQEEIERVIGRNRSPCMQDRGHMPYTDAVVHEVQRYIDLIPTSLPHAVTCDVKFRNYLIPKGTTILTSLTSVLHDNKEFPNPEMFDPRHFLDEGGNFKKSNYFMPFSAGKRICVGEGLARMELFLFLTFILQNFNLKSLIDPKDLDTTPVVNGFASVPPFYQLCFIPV

T1 sequence (P08684 whole entry): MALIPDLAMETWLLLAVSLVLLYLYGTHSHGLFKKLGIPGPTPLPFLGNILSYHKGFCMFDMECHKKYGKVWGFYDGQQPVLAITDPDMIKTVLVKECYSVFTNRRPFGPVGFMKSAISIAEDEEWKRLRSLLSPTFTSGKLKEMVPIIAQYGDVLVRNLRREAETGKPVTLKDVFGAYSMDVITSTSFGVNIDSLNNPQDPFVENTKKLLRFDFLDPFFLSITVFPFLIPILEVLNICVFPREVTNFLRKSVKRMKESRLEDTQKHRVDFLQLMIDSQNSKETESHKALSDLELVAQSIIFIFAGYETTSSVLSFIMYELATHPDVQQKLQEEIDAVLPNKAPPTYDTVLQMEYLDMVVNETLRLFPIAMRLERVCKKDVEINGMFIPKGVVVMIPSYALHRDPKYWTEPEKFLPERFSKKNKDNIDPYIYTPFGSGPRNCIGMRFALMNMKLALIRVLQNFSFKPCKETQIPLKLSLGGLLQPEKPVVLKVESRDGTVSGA

CCOC(=O)c1cc(C(=O)c2ccc(Cl)cc2)n2ccc(-c3cc[n+](CC(=O)c4ccc(C)cc4)cc3)cc12 [Compound 6i]
IC50 CYP3A4-Midazolam (CYP3A4; probe substrate midazolam): moderate inhibition
IC50 (CYP3A4; probe substrate midazolam, read-out: IC50 CYP3A4-Midazolam): 0.48 µM
IC50 CYP3A4-Testosterone (CYP3A4; probe substrate testosterone): high inhibition
IC50 (CYP3A4; probe substrate testosterone, read-out: IC50 CYP3A4-Testosterone): 0.081 µM
IC50 [1]: 7 µM
MIC (Mycobacterium abscessus): showed activity
IC50 (Mycobacterium abscessus; Mycobacteroides abscessus): 14 µM
IC90 (Mycobacterium abscessus; Mycobacteroides abscessus): 23 µM
MIC (Mycobacterium abscessus; Mycobacteroides abscessus, read-out: MIC): 25 µM
Papp B→A [2]: 1.3 ×10⁻⁶ cm/s
efflux ratio [2]: 1.7
IC50 (CYP2C19): > 5 µM

— PMC6021032, “Antimycobacterial activity of nitrogen heterocycles derivatives: 7-(pyridine-4-yl)-indolizine derivatives. Part VII^8–12” (Journal of Enzyme Inhibition and Medicinal Chemistry, 2017)
